Entries after “also recorded” stand apart in the source; their conditions may differ. One block for each compound: values may come before it.
Assays:
PKC delta = PKC delta (Homo sapiens, UniProt Q05655); conditions: cited from earlier work
PKC beta = PKC beta (Homo sapiens, UniProt P05771); conditions: cited from earlier work
PKCalpha [1] = target: T1, PKCalpha (Homo sapiens, UniProt P17252); conditions: cited from earlier work
PKC epsilon = target: T2, PKC epsilon (Homo sapiens, UniProt Q02156); conditions: cited from earlier work
T2 sequence (Q02156 1-737): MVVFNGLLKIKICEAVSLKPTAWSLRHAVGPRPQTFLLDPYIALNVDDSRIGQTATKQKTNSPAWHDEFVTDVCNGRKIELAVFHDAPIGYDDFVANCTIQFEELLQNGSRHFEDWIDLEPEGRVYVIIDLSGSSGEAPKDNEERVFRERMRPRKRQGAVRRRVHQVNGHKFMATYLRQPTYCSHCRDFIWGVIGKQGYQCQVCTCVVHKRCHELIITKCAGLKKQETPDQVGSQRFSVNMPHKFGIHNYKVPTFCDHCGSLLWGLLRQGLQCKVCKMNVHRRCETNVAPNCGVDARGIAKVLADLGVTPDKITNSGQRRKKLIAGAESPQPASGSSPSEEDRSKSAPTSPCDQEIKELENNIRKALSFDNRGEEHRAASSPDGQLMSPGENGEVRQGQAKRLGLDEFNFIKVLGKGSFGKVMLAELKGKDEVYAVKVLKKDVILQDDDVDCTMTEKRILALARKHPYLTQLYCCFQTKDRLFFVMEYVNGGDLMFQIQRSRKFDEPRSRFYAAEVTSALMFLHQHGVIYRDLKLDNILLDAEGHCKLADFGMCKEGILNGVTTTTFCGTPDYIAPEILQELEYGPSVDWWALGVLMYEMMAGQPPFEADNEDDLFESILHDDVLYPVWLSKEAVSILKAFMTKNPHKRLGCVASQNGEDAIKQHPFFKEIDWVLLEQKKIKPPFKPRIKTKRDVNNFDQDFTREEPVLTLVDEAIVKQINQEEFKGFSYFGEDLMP

PKCalpha [2] = target: T1, PKCalpha; conditions: cited from earlier work; remark: listed apart in the source
PKC gamma = PKC gamma (Homo sapiens, UniProt P05129); conditions: cited from earlier work
[3] = test system: breast carcinoma cell lines MCF-7 and MDA-MB-231; conditions: cited from earlier work
[4] = test system: lung cancer and HeLa cervical adenocarcinoma cells; conditions: formation of membrane ruffles; cited from earlier work
PKCδ = PKCδ (Homo sapiens, UniProt Q05655); conditions: cited from earlier work
ABL [5] = target: T3, ABL (Homo sapiens, UniProt P00519); test: ADP-Glo ABL activation; format: biochemical
Description: To expand the scope of PHICS beyond the Ser/Thr kinases (AMPK or PKC), Applicants will develop PHICS using the Abelson (ABL) family that are nonreceptor tyrosine kinases with SH3-SH2-TK ([…]) domains (42, 43). An autoinhibitory mechanism involving intramolecular interactions stabilizes this kinase in a “locked” conformation, inhibiting kinase activity unless the SH3 domain interactions are disrupted by binding of an activator. The SH2 domain of ABL is responsible for substrate specificity: if the SH2 domain is exchanged for another protein's SH2 domain, then substrate specificity is altered (43). […] Both DPH and DPH with linker (FIG. 83B) activated ABL in […] (FIG. 83C).

ABL [6] = target: T3, ABL; conditions: cited from earlier work
VEGFR = VEGFR (Homo sapiens, UniProt P35968); conditions: cited from earlier work
BRD4 (PKCβI) = target: T4, BRD4 (PKCβI) (Homo sapiens, UniProt O60885+P05771); test: BRD4 phosphorylation by PKC isoform, western blot; format: biochemical
T4 construct: BRD4-GST (BD1 and BD2 (49-460))(31044); purchased SignalChem (PKC); BPS Bioscience (BRD4) P62-18G; 31044
Description: (§1) Similar approaches were followed to determine the phosphorylation of BRD4 with different AMPK and PKC isoforms as well as phosphorylation of different BRD proteins.

BRD4 (PKCβII) = target: T5, BRD4 (PKCβII) (Homo sapiens, UniProt O60885+P05771); test: BRD4 phosphorylation by PKC isoform, western blot; format: biochemical
T5 construct: BRD4-GST (BD1 and BD2 (49-460))(31044); purchased SignalChem (PKC); BPS Bioscience (BRD4) P63-18G; 31044
Description: as §1

BRD4 (PKCδ) = target: T6, BRD4 (PKCδ) (Homo sapiens, UniProt O60885+Q05655); test: BRD4 phosphorylation by PKC isoform, western blot; format: biochemical
T6 construct: BRD4-GST (BD1 and BD2 (49-460))(31044); purchased SignalChem (PKC); BPS Bioscience (BRD4) P64-18G; 31044
Description: as §1

BRD4 (PKCγ) = target: T7, BRD4 (PKCγ) (Homo sapiens, UniProt O60885+P05129); test: BRD4 phosphorylation by PKC isoform, western blot; format: biochemical
T7 construct: BRD4-GST (BD1 and BD2 (49-460))(31044); purchased SignalChem (PKC); BPS Bioscience (BRD4) P66-18G; 31044
Description: as §1

BRD4 and PKC (α-isoform) = target: T8, BRD4 and PKC (α-isoform) (Homo sapiens, UniProt O60885+P17252); test: AlphaScreen ternary complex formation; format: binding
T8 construct: BRD4-His tag (BD1 and BD2 (49-460))(31045); purchased BPS Bioscience (BRD4); SignalChem (PKCα) 31045; P61-18G
Experimental: A similar approach was followed to determine the PHICS2 induced ternary complex formation between PKC: PHICS2: BRD4-GST (BD1 and BD2). Initially, concentration series of PHICS (2.1, 2.2, 2.3, 2.4 and 2.5) with different linkers and (R)-PHICS2.3 with DMSO control were prepared in a white opaque 384-well microplate using a dilution assay buffer with 1% DMSO in the final mixture. Then 10 nM PKC-GST and 100 nM BRD4 (6×His tag) were added to the mixture and incubated at room temperature. Following 1 hr incubation, acceptor beads and donor beads were added to the system.

BRD4 (PKCα) = target: T9, BRD4 (PKCα) (Homo sapiens, UniProt O60885+P17252); test: BRD4 phosphorylation by PKC, western blot; format: biochemical
T9 construct: BRD4-GST (BD1 and BD2 (49-460))(31044); GST; purchased BPS Bioscience (BRD4); SignalChem (PKCα) 31044; P61-18G
Experimental: Kinase reaction was performed using 1 μM PHICS (2.1, 2.2, 2.3, 2.4, 2.5 and (R)-2.3), 50 nM PKC, 700 nM BRD4-GST and 50 μM ATP for 1 hr at room temperature before quenching with SDS loading buffer. Proteins were resolved in NuPAGE 4-12% Bis-Tris protein gels and transferred to a PVDF membrane. After incubation of the membrane with the blocking buffer, phospho-PKC substrate motif [(R/K)XpSX(R/K)] (Cell Signaling, Cat #6967) (1:1000) primary antibody was added to the membrane and further incubated at 4° C. for overnight. HRP-conjugated secondary antibodies or IRDye 800CW/IRDye 680RD secondary antibodies were used to visualize the protein bands.
as §1

BRD4 (PKC) = target: T10, BRD4 (PKC) (Homo sapiens, UniProt O60885+P17252); test: ADP-Glo turnover assay, PKC + BRD4-GST; format: biochemical; conditions: limiting PKC 50 nM; iPHICS2 as negative control
T10 construct: BRD4-GST (BD1 and BD2 (49-460))(31044); GST; purchased BPS Bioscience (BRD4); SignalChem (PKCα) 31044; P61-18G
Experimental: The same protocol was followed for PHICS2.3 as well. Initially, 1 μM of PHICS2.3 and (R)-PHICS2.3 were prepared in a 96 well plate (white, flat bottom) using kinase assay buffer and incubated with 50 nM PKC and 700 nM BRD4-GST (BD1 and BD2) for 1 hr at room temperature in the presence of 50 μM ATP before adding ADP-Glo reagents.

[7] = test system: AMPK:PHICS3:BTK ternary complex; test: co-immunoprecipitation of AMPK with BTK-Flag in HEK293T cells; format: cell-based; conditions: HEK293T transfected with BTK-Flag
Experimental: Co-immunoprecipitation was performed to evaluate the ternary complex (AMPK: PHICS3: BTK) formation in HEK293T cells after overexpressing the BTK, which is otherwise absent in these cells. HEK293T cells were cultured in DMEM supplemented with 10% FBS, penicillin (100 units/mL) and streptomycin (100 μg/mL). Cells were maintained at 37° C. in 5% CO2 humidified atmosphere.
After 36 hrs transfection of pcDNA3.1(+) BTK-Flag plasmid using TransIT®-293 Transfection Reagent, HEK 293T cells were maintained in a serum-free media overnight before incubation with compounds. After that, cells were treated with 5 μM concentration of AMPK activator or BTK binder or PHICS3 or DMSO control for 4 hrs in a fresh serum-free media before cells were lysed on ice in a lysis buffer (M-PER™ Mammalian Protein Extraction Reagent, Halt™ Protease and Phosphatase Inhibitor Cocktail (2×) and 50 mM NaF). Next, the protein concentrations of cell lysates were measured using Pierce™ BCA Protein Assay Kit. Equal amounts of cell lysates were incubated with Anti-FLAG® M2 Magnetic Beads overnight at 4° C. […] Eluted proteins were analyzed by western blotting using AMPK-α rabbit antibody (Cell Signaling, Cat #5832) or Flag mouse antibody (Cell Signaling, Cat #8146) (1:2000) or Beta-actin mouse antibody (Cell Signaling, Cat #3700) (1:2000).

BTK (Ser180) [8] = target: BTK (Ser180) (Homo sapiens, UniProt Q06187+Q13131+Q9Y478); test: in vitro BTK phosphorylation by AMPK, western blot; format: biochemical; conditions: phospho BTK (Ser180) antibody
Experimental: FIG. 69—In-vitro biochemical validation of BTK phosphorylation by AMPK in the presence of PHICS. Western blot analysis for BTK phosphorylation using 10 μM BTK targeting AMPK-PHICS with different linkers for identification of the optimal molecule for further studies.

BTK (Ser180) [9] = target: T11, BTK (Ser180) (Homo sapiens, UniProt Q06187, K430R); test: BTK Ser180 phosphorylation in HEK293T cells, western blot; format: cell-based; conditions: BTK K430R mutant
T11 construct: expressed in transfected cells; host or cells: HEK293T

BTK (Ser180) [10] = target: BTK (Ser180) (Homo sapiens, UniProt Q06187); test: as above; format: cell-based
BTK (Ser180) [11] = target: T12, BTK (Ser180) (Homo sapiens, UniProt Q06187, D539N); test: as above; format: cell-based; conditions: BTK D539N mutant
T12 construct: expressed in transfected cells; host or cells: HEK293T

BTK (Ser180) [12] = target: T13, BTK (Ser180) (Homo sapiens, UniProt Q06187, S180A); test: as above; format: cell-based; conditions: BTK-Flag S180A mutant
T13 construct: expressed in transfected cells; host or cells: HEK293T

BTK (Ser180) [13] = target: T14, BTK (Ser180) (Homo sapiens, UniProt Q06187, T474A); test: as above; format: cell-based; conditions: BTK T474A mutant
T14 construct: expressed in transfected cells; host or cells: HEK293T

Sequence of BTK (Ser180) (Homo sapiens, UniProt Q06187) (Q06187 2-659): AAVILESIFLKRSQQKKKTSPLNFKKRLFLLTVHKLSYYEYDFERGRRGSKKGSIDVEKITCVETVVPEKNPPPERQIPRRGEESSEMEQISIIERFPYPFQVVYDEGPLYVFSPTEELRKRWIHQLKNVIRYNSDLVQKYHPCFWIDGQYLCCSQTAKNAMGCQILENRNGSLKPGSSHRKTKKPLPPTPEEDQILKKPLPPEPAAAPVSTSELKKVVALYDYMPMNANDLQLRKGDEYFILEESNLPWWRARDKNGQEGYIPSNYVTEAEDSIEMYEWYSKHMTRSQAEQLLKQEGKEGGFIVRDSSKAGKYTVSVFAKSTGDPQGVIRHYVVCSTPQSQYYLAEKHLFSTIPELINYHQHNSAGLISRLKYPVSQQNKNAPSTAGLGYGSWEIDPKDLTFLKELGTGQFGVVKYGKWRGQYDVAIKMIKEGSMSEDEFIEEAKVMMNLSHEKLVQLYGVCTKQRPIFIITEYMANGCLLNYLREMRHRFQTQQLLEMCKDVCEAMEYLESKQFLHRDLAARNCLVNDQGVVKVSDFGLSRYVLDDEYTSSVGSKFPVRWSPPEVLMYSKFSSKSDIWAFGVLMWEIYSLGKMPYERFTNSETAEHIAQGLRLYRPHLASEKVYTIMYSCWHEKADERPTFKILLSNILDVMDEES
Sequence of PKC delta (Q05655 whole entry): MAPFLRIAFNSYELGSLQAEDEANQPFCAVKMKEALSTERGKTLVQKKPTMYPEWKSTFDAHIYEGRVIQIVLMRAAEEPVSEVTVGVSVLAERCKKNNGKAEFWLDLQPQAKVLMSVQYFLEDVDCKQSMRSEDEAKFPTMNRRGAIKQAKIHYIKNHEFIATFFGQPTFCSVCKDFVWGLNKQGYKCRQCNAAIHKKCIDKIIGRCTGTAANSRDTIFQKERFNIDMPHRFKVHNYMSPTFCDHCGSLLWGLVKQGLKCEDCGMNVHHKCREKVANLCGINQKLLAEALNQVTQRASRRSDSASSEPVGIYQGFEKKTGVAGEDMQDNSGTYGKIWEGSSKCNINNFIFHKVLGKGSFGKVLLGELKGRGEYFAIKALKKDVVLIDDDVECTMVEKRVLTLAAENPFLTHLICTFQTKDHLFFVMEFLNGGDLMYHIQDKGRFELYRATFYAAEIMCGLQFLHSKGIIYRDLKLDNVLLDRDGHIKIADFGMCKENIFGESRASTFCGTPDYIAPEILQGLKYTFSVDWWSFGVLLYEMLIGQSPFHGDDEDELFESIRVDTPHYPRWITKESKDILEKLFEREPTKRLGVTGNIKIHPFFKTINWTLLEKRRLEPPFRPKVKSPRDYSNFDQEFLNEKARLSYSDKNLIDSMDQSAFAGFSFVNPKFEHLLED
Sequence of BTK (Ser180) (Homo sapiens, UniProt Q06187+Q13131+Q9Y478) (Q06187 whole entry): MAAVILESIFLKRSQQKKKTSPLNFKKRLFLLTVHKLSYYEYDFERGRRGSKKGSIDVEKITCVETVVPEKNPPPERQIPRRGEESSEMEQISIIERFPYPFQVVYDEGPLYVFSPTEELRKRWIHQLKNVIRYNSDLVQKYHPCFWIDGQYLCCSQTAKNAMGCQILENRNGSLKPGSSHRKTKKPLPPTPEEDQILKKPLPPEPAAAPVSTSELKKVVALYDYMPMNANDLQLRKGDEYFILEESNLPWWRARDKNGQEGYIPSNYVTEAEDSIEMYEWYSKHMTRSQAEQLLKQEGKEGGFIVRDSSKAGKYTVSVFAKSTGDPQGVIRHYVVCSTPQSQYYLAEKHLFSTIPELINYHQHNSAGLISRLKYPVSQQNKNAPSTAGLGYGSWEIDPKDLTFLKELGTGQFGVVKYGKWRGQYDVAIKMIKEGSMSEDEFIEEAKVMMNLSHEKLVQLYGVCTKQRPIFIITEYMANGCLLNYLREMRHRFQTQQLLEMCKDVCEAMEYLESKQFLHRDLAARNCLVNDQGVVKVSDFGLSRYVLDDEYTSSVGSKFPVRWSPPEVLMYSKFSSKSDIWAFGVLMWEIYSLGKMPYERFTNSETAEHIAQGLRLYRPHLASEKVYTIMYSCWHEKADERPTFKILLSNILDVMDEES
Sequence of BTK (Ser180) (Homo sapiens, UniProt Q06187+Q13131+Q9Y478) (Q13131 whole entry): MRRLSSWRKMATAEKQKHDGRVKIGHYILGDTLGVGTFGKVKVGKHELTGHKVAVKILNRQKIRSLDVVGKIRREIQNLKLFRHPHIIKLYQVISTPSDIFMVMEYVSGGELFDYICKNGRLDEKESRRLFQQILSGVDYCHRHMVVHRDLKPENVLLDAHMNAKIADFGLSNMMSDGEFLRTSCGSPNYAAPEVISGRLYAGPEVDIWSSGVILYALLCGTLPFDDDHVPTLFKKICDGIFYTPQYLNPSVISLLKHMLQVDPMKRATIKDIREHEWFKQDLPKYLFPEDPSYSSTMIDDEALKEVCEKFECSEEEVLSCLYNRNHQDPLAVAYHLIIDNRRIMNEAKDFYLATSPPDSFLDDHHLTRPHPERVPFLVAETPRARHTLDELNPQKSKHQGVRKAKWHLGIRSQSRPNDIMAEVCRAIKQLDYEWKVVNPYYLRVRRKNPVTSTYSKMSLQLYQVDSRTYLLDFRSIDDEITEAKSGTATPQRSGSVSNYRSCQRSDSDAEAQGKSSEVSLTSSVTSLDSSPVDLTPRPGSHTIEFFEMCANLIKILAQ
Sequence of BTK (Ser180) (Homo sapiens, UniProt Q06187+Q13131+Q9Y478) (Q9Y478 whole entry): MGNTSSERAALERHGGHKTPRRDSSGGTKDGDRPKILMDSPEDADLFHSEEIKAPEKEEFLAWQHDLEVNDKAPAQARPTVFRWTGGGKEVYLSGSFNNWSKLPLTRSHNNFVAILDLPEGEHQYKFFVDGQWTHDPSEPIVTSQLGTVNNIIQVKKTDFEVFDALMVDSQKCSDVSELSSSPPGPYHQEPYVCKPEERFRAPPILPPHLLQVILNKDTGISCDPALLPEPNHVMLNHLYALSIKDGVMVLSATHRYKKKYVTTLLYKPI
Sequence of BTK (Ser180) (Homo sapiens, UniProt Q06187+Q13131+Q9Y478) (P54619 whole entry partner): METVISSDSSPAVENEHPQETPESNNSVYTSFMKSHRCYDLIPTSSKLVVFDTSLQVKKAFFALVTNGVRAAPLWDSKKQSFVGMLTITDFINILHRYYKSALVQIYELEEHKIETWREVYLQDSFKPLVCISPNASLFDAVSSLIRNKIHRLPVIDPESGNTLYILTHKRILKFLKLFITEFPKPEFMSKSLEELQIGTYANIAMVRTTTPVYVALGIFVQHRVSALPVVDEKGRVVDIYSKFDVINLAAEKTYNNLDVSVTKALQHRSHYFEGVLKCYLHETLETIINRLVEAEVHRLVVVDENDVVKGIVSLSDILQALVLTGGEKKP
T3 sequence (P00519 whole entry, species assumed, the tested form may be a part): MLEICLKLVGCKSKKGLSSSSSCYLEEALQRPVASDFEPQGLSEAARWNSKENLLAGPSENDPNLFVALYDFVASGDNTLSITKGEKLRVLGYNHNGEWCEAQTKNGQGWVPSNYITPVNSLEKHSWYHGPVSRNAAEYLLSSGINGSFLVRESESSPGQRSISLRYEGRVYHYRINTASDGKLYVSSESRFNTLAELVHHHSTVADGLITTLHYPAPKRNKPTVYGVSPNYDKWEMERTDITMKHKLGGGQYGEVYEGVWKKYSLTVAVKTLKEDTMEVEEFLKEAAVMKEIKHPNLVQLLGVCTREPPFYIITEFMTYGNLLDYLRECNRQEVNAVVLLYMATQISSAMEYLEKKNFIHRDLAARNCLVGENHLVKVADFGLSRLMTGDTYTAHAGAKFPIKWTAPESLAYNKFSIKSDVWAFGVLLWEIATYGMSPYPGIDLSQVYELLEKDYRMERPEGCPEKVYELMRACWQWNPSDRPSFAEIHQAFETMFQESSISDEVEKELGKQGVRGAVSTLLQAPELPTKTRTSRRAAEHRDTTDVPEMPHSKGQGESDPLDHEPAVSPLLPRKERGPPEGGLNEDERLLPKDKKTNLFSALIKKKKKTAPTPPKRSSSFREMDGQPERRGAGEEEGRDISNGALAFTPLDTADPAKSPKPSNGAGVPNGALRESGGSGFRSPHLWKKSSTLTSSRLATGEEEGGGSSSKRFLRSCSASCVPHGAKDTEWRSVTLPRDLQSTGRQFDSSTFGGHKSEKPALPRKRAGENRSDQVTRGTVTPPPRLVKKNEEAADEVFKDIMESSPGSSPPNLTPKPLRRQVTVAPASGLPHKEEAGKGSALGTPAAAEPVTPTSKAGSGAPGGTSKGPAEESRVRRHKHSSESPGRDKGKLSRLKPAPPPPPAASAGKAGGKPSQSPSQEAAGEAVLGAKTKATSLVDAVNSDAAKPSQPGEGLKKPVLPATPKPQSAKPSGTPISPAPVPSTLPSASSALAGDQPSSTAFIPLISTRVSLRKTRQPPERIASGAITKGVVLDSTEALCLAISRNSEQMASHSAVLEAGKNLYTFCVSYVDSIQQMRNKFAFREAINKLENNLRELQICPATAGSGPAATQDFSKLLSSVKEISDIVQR
T12 sequence (Q06187 2-659 D539N): as the sequence (Q06187 2-659) above, with D538N counted along it
Sequence of PKCδ (Q05655 whole entry): as the sequence (Q05655 whole entry) above

ABL activation (ADP-Glo) (ABL [5]): activated
Structure (SMILES): O=C1NC(=O)C(c2cn(-c3ccccc3)nc2-c2ccc(F)cc2)N1 (stereo not shown) [DPH, 5-[3-(4-fluorophenyl)-1-phenyl-1H-pyrazol-4-yl]-2,4-imidazolidinedione]
Kd (ABL [6]): 137 nM

BRD4 phosphorylation level (BRD4 (PKCβI)): modest phosphorylation | BRD4 phosphorylation level (BRD4 (PKCβII)): modest phosphorylation | BRD4 phosphorylation level (BRD4 (PKCδ)): only minor phosphorylation | BRD4 phosphorylation level (BRD4 (PKCγ)): only minor phosphorylation | ternary complex formation (AlphaScreen), BRD4 and PKC (BRD4 and PKC (α-isoform)): displayed the bell-shaped curve | BRD4 phosphorylation level (BRD4 (PKCα)): highest BRD4 phosphorylation | calculated ADP production (BRD4 (PKC)): 740 ± 31 nM
Structure (SMILES): Cc1sc2c(c1C)C(c1ccc(Cl)cc1)=NC(CC(=O)NCCCCCC(=O)NCc1ccc(COc3ccc4c(c3)N(C)[C@@H](C(C)C)C(=O)N[C@H](CO)C4)cc1)c1nnc(C)n1-2 (stereo partly shown) [PHICS2.3]

BTK phosphorylation at Ser180 (BTK (Ser180) [9]): markedly reduced | BTK phosphorylation at Ser180 (BTK (Ser180) [11]): markedly reduced | BTK phosphorylation at Ser180 (BTK (Ser180) [12]): phosphorylation was not detected | BTK phosphorylation at Ser180 (BTK (Ser180) [13]): drastically lowered BTK phosphorylation
Structure (SMILES): Nc1ncnc2c1c(-c1ccc(Oc3ccccc3)cc1)nn2[C@@H]1CCCN(C(=O)CCCCCCCCC(=O)NCCOc2ccc(-c3cc4c(C(=O)O)c[nH]c4cc3Cl)cc2)C1 [PHICS3]
ternary complex formation inside the cells (co-immunoprecipitation) [7]: co-immunoprecipitation of AMPK with BTK | in vitro BTK phosphorylation (linker comparison) (BTK (Ser180) [8]): most optimal molecule for phosphorylation; also recorded: optimum | BTK phosphorylation at Ser180 (BTK (Ser180) [10]; WT BTK-Flag): optimal molecule for phosphorylation; also recorded: able to detect PHICS-mediated BTK phosphorylation at Ser180 | BTK phosphorylation at Ser180 (BTK (Ser180) [10]; pre-treatment with covalent BTK binder ibrutinib): demolished the ability of PHICS3 to induce BTK phosphorylation

The next lines start with the compound.

Structure (SMILES): CCCCCCCCC#Cc1ccc2c(c1)C[C@@H](CO)NC(=O)[C@H](C(C)C)N2C
Kd (PKC delta): 122 nM | Kd (PKC beta): 17.4 nM | Kd (PKCalpha [1]): 14.7 nM | Kd (PKC epsilon): 142 nM | down-regulation of PKCalpha (PKCalpha [2]): preferentially down-regulates PKCalpha | Kd (PKC gamma): 40.7 nM | antiproliferative activity against breast carcinoma [3]: antiproliferative activity

Structure (SMILES): CC(C)CC(C/C=C1\CC(CO)(COC(=O)C(C)(C)C)OC1=O)CC(C)C (stereo not shown) [AJH-836]
Kd (PKC delta): 1.89 nM | Kd (PKC beta): 19.7 nM | cytoskeletal reorganization [4]: AJH-836 induced major changes in cytoskeletal reorganization in lung cancer and HeLa cervical adenocarcinoma cells as determined by the formation of membrane ruffles | Kd (PKCalpha [1]): 23.6 nM | Kd (PKC epsilon): 1.89 nM | PKC isoform selectivity (PKCδ): selective for PKCδ and PKC

Structure (SMILES): COc1cc2nccc(Oc3ccc(NC(=O)NC4CC4)c(Cl)c3)c2cc1C(N)=O [Lenvatinib]
Residence time (VEGFR): 17 min

From patent publication US20230117831A1, “MULTI-FUNCTIONAL CHIMERIC MOLECULES” (THE BROAD INSTITUTE, INC., priority 2020, published 2023)
